Test results reported in US20080076166A1, “Method For Producing Polyunsaturated Fatty Acids In Transgenic Organisms” (priority 2004, published 2008).
Read-outs that look alike come from different tables or passages of the source.

Key:
[1] = tested on: desaturase OtDes6.1 (Δ6-desaturase); type: cell-based, Ostreococcus tauri; details: for Activity in %: yeast transformed with pYES2-OtDes6.1, conversion rate [substrate/(substrate+product)*100], mean (n=3)
Description: (§1) The Saccharomyces cerevisiae strain 334 was transformed with the vector pYES2.1-OtD6.1 by electroporation (1500 V). A yeast which was transformed with the blank vector pYES2 was used as control. The transformed yeasts were selected on complete minimal dropout uracil medium (CMdum) agar plates supplemented with 2% glucose. After the selection, in each case three transformants were selected for the further functional expression.
(§2) To express the OtD6.1 desaturase, precultures consisting of in each case 5 ml of CMdum dropout uracil liquid medium supplemented with 2% (w/v) raffinose were initially inoculated with the selected transformants and incubated for 2 days at 30° C. and 200 rpm. Then, 5 ml of CMdum (dropout uracil) liquid medium supplemented with 2% raffinose and 300 μM various fatty acids were inoculated with the precultures to an OD600 of 0.05. Expression was induced by the addition of 2% (w/v) galactose. The cultures were incubated for a further 96 hours at 20° C.
The yeast cells from the main cultures were harvested by centrifugation (100×g, 5 min, 20° C.) and washed with 100 mM NaHCO3, pH 8.0 to remove residual medium and fatty acids. The yeast cell sediments were extracted for 4 hours using chloroform/methanol (1:1). The resulting organic phase was extracted with 0.45% NaCl, dried with Na2SO4 and evaporated in vacuo. Applying thin-layer chromatography (horizontal tank, chloroform:methanol:acetic acid 65:35:8), the lipid extract was separated further into the lipid classes phosphatidylcholine (PC), phosphatidylinosotol (PI), phosphatidylserine (PS), phsophatidylethanolamine (PE) and neutral lipids (NL). The various separated spots on the thin-layer plate were scraped off. For the gas-chromatographic analysis, fatty acid methyl esters (FAMEs) were prepared by acid methanolysis. To this end, the cell sediments were incubated for one hour at 80° C. together with 2 ml of 1 N methanolic sulfuric acid and 2% (v/v) dimethoxypropane. The FAMEs were extracted twice with petroleum ether (PE). To remove nonderivatized fatty acids, the organic phases were washed in each case once with 2 ml of 100 mM NaHCO3, pH 8.0 and 2 ml of distilled water. Thereafter, the PE phases were dried with Na2SO4, evaporated under argon and taken up in 100 μl of PE. The samples were separated on a DB-23 capillary column (30 m, 0.25 mm, 0.25 μm, Agilent) in a Hewlett-Packard 6850 gas chromatograph equipped with flame ionization detector. The conditions for the GLC analysis were as follows: the oven temperature was programmed from 50° C. to 250° C. with a 5° C./min increment and finally 10 min at 250° C. (holding).
The signals were identified by comparing the retention times with corresponding fatty acid standards (Sigma). The methodology is described for example in Napier and Michaelson, 2001, Lipids. 36(8):761-766; Sayanova et al., 2001, Journal of Experimental Botany. 52(360):1581-1585, Sperling et al., 2001, Arch. Biochem. Biophys. 388(2):293-298 and Michaelson et al., 1998, FEBS Letters. 439(3):215-218.
The substrate specificity of OtDes6.1 was determined after expression and after feeding various fatty acids. The substrates fed can be detected in large amounts in all of the transgenic yeasts. […]
The yeasts which had been transformed with the vector pYES2-OtDes6.1 were grown in minimal medium in the presence of the stated fatty acids. […] Thereafter, the FAMEs were analyzed via GLC. […] The activity corresponds to the conversion rate calculated using the formula [[…]].

[2] = tested on: elongase OtElo2 (Δ6-elongase); type: cell-based, Ostreococcus tauri
Description: as §1, with “pOTE1 or pOTE2, respectively,” for “pYES2.1-OtD6.1”
as §2, with “express the Ot elongases, precultures consisting” for “express the OtD6.1 desaturase, precultures consisting”, “20° C. […]” for “20° C.”
The substrate specificity of OtElo2 (SEQ ID NO: 1) was determined after expression and after feeding various fatty acids (Tab. 3). The substrates fed can be detected in large amounts in all of the transgenic yeasts. […]
The yeasts which had been transformed with the vector pOTE2 were grown in minimal medium in the presence of the fatty acids stated. […] Thereafter, the FAMEs were analyzed by GLC. […]

[3] = tested on: OtD6 + PSE1 + PtD5; experiment: Reconstitution of the PUFA biosynthesis in yeast, total fatty acids; type: cell-based; details: to DHGLA and DHSTA, FIG. 5
Description: The yeast cells from the main cultures were harvested by centrifugation (100×g, 5 min, 20° C.) and washed with 100 mM NaHCO3, pH 8.0 to remove residual medium and fatty acids. The yeast cell sediments were extracted for 4 hours using chloroform/methanol (1:1). The resulting organic phase was extracted with 0.45% NaCl, dried with Na2SO4 and evaporated in vacuo. […] For the gas-chromatographic analysis, fatty acid methyl esters (FAMEs) were prepared by acid methanolysis. To this end, the cell sediments were incubated for one hour at 80° C. together with 2 ml of 1 N methanolic sulfuric acid and 2% (v/v) dimethoxypropane. The FAMEs were extracted twice with petroleum ether (PE). To remove nonderivatized fatty acids, the organic phases were washed in each case once with 2 ml of 100 mM NaHCO3, pH 8.0 and 2 ml of distilled water. Thereafter, the PE phases were dried with Na2SO4, evaporated under argon and taken up in 100 μl of PE. The samples were separated on a DB-23 capillary column (30 m, 0.25 mm, 0.25 μm, Agilent) in a Hewlett-Packard 6850 gas chromatograph equipped with flame ionization detector. The conditions for the GLC analysis were as follows: the oven temperature was programmed from 50° C. to 250° C. with a 5° C./min increment and finally 10 min at 250° C. […]
The parameters measured were the total fatty acids.

[4] = tested on: elongase OtElo1 (Δ5-elongase); type: cell-based, Ostreococcus tauri; details: for Conversion rate (in %): yeast transformed with pOTE1, grown in presence of the fatty acid, FAMEs by GLC, mean (n=3) ± standard deviation
Description: as §1, with “pOTE1 or pOTE2, respectively,” for “pYES2.1-OtD6.1”
as §2, with “Ot elongases,” for “OtD6.1 desaturase,”
The yeast cells from the main cultures were harvested by centrifugation (100×g, 5 min, 20° C.) and washed with 100 mM NaHCO3, pH 8.0 to remove residual medium and fatty acids. Starting with the yeast cell sediments, fatty acid methyl esters (FAMEs) were prepared by acid methanolysis. To this end, the cell sediments were incubated for one hour at 80° C. together with 2 ml of 1 N methanolic sulfuric acid and 2% (v/v) of dimethoxypropane. The FAMEs were extracted twice with petroleum ether (PE). To remove nonderivatized fatty acids, the organic phases were washed in each case once with 2 ml of 100 mM NaHCO3, pH 8.0 and 2 ml of distilled water. […]
The substrate specificity of OtElo1 was determined after expression and after feeding various fatty acids (Tab. 2). The substrates fed can be detected in large amounts in all of the transgenic yeasts. […]
The yeasts which had been transformed with the vector pOTE1 were grown in minimal medium in the presence of the fatty acids stated. […] Thereafter, the FAMEs were analyzed by GLC. […]

CCCCCC/C=C\CCCCCCCC(=O)O [16:1^Δ9, palmitoleic acid]
Activity of OtDes6.1, in words [1]: markedly less pronounced
Activity in % [1]: 5.6%

CCCCC/C=C\C/C=C\CCCCCCCC(=O)O [18:2^Δ9,12, linoleic acid]
Activity of OtDes6.1, in words [1]: highest activities
Activity in % [1]: 68.7%

CCCCC/C=C\C/C=C\C/C=C\CCCCC(=O)O [18:3^Δ6,9,12, γ-linolenic acid]
Conversion rate (in %) [2]: 15.3%
Elongation of the OtDes6.1 reaction products in the presence of the Δ6-elongase PSE1 [3]: almost quantitatively

CC/C=C\C/C=C\C/C=C\CCCCCCCC(=O)O [18:3^Δ9,12,15, linolenic acid]
Activity in % [1]: 64.6%

CC/C=C\C/C=C\C/C=C\C/C=C\CCCCC(=O)O [18:4^Δ6,9,12,15, stearidonic acid]
Conversion rate (in %) ([2]; yeast transformed with pOTE2, grown in presence of the fatty acid, FAMEs by GLC, mean (n=3) ± standard deviation): 21.1%
Elongation of the OtDes6.1 reaction products in the presence of the Δ6-elongase PSE1 [3]: almost quantitatively

CCCCC/C=C\C/C=C\C/C=C\C/C=C\CCCC(=O)O [20:4^Δ5,8,11,14, arachidonic acid]
Elongation by OtElo1, in words ([4]; Table 2, FIG. 2 and 3): capable of elongating
Conversion rate (in %) [4]: 10.8 ± 0.6%

CC/C=C\C/C=C\C/C=C\C/C=C\C/C=C\CCCC(=O)O [20:5^Δ5,8,11,14,17, eicosapentaenoic acid]
Conversion rate (in %) [4]: 46.8 ± 3.6%
